For data set [1] the following is noted: reference for the measurement; cited from earlier work.
For data set [2] the following is noted: CH3CN; cited from earlier work.
The test system of data set [3] is human cervical carcinoma (HeLa) cells. The data set can be described thus: (Photo-)cytotoxicity on 2D cell monolayers, resazurin assay, HeLa. Format: cell-based. To be noted: dark, 4 h incubation, compounds 1-3 as chloride salts, read-out: IC50 dark. The source says:
Before an experiment, the cells were passaged three times.
For orientation: Resazurin is reduced to fluorescent resorufin, in cell work by metabolically active cells.

The subject of data set [4] is HeLa MCTS. Briefly: 3D multicellular tumor spheroids (MCTS) growth inhibition assay. Format: cell-based, human. As to the method: (§1) autoclave. The hot emulsion was transferred into wells (50 μL per well) of a 96 cell culture well plate. The plates were exposed for 3 h to UV irradiation to ensure the sterility and allow the agarose solution to cool down. After this time, the agarose was overlayed with a HeLa cell suspension at a density of 3000 cells per well in 150 μL of media. The MCTS were cultivated and maintained at 37° C. in a cell culture incubator at 37° C. with 5% CO2 atmosphere. The culture media was replaced every two days. Within two-three days MCTs were formed from the cell suspension. The formation as well as integrity, diameter and volume of the MCTs was monitored by an Axio Observer Z1 (Carl Zeiss) phase contrast microscope. The volume was calculated using the following formula: V=4/3πr^3. The luminescence images along the z-axis were captured by a one-(λex=458 nm, λem=600-750 nm) or two-photon (λex=800 nm, λem=600-750 nm) excitation in the z-stack mode with a an LSM 880 (Carl Zeiss) laser scanning confocal microscope equipped with Argon and a Coherent Chameleon 2-Photon laser and a GaAsP detector.
MCTS were treated with the corresponding compounds (20 μM 1-7, 20 μM tetraphenylporphyrin H2TPP, 10 μM cisplatin, 30 μM cisplatin, 2% DMSO, v %) by replacing 50% of the media with drug supplemented media in the dark for three days. After this time, the MCTS were exposed to a two-photon irradiation (800 nm, 10 J/cm^2) with a section interval of 5 μm using a LSM 880 (Carl Zeiss) laser scanning confocal microscope equipped with a Coherent Chameleon 2-Photon laser. The cell culture media was replaced every two days. The integrity and diameter of the MCTs was monitored with an Axio Observer Z1 (Carl Zeiss) phase contrast microscope every 24 h.

Data set [5] relates to HeLa MCTS. The data set can be described thus: (Photo-)cytotoxicity on 3D multicellular tumor spheroids (ATP, CellTiter-Glo 3D). To be noted: dark, 12 h incubation, read-out: IC50 dark. Format: cell-based, human. On the procedure:
as §1
The cytotoxicity of the compounds in 3D multicellular tumor spheroids (MCTS) was assessed by measurement of the ATP concentration. MCTS were treated with increasing concentrations of the compound (2% DMSO, v %) by replacing 50% of the media with drug supplemented media and incubation for 12 h. After this time, the MCTS were divided in three identical groups. The first group was strictly kept in the dark. The second group was exposed to a one-photon irradiation (500 nm, 10 J/cm^2) using a LED and the third group was exposed to a two-photon irradiation (800 nm, 10 J/cm^2) with a section interval of 5 μm using a LSM 880 (Carl Zeiss, Germany) laser scanning confocal microscope equipped with a Coherent Chameleon 2-Photon laser. After the irradiation, all groups were incubated additional 48 h. The ATP concertation was measured using a CellTiter-Glo 3D Cell Viability kit (Promega) by measuring the generated chemiluminescence with an infinite M200 PRO (Tecan) plate reader.
(Cellular ATP, detected with luciferase, serves as a proxy for viable cell number.)

In data set [6] the test system is human glioblastoma astrocytoma (U373) cells. Briefly: (Photo-)cytotoxicity on 2D cell monolayers, resazurin assay, U373. To be noted: read-out: IC50 dark; U373, dark; 4 h incubation; compounds 1-3 as chloride salts.
The subject of data set [7] is mouse colon carcinoma (CT-26) cells. Briefly: (Photo-)cytotoxicity on 2D cell monolayers, resazurin assay, CT-26. The note with it: read-out: IC50 dark; CT-26, dark; 4 h incubation; compounds 1-3 as chloride salts.

The values below come from US20220409727A1, “Metal Complexes Bearing Bisstyryl-Bipyridine Ligand and Their Use as Photosensitizer Agent in One and Two-Photon Photodynamic Therapy” (Paris Sciences et Lettres, priority 2019, published 2022).

For `O=C([O-])c1c(Cl)c(Cl)c(Cl)c(Cl)c1-c1c2cc(I)c(=O)c(I)c-2oc2c(I)c([O-])c(I)cc12.[Na+].[Na+]` [Rose Bengal], the “Φ (singlet oxygen quantum yield of the reference)” value in data set [1] is given as 76%.

`[Cl-].[Cl-].[Ru+2].c1ccc(-c2ccccn2)nc1.c1ccc(-c2ccccn2)nc1.c1ccc(-c2ccccn2)nc1` [[Ru(bipy)3]Cl2]: the “Φem (luminescence quantum yield of the reference)” value in data set [2] is reported as 5.9%.

One may read the IC50 as the concentration that inhibits the measured activity by half. Take `N.N.[Cl][Pt][Cl]` [cisplatin, reference compound]: the IC50 in data set [3] came out at 10.5 ± 0.8 µM; in the data set with HeLa MCTS [5], 18.6 ± 1.3 µM; in data set [6], 17.6 ± 1.7 µM; in data set [7] it was 6.5 ± 1.1 µM. For the same compound, the “effect on the tumours growth (MCTS volume) at 10 μM” value in the data set with HeLa MCTS [4] (10 μM) is reported as “weak effect”. Further, the “effect on the tumours growth (MCTS volume) at 30 μM” value in the data set with HeLa MCTS [4] (30 μM) was “significantly decreasing the volume”.
